{
  "source": "patent US20040053918A1",
  "about": "“Erythropoietin production potentiator” (KOWA CO., LTD., priority 2002, published 2004)",
  "type_in_all_cases": "cell-based",
  "key": {"Hep3B cells [1]": {"system": "Hep3B cells", "assay": "EPO produced by Hep3B cells under 21% O2, ELISA of culture supernatant", "description": "(§1) Hep3B cells, which produce EPO at a low O2 partial pressure, were cultured in an amount of 1.5-3.0×10^6 cells/petri dish (100 mm) by use of Dulbecco's modified eagles' medium (DMEM)/10% fetal calf serum (FCS) (10 ml). The next day, the culture liquid of each petri dish was renewed, and a predetermined amount of compound 1 was added thereto, followed by culture for 24 hours at 37° C. under 1% O2 or 21% O2. EPO contained in the resultant culture supernatant was measured through ELISA. Separately, EPO potentiator activity was measured in the following manner. The luciferase-pXP2 (serving as a reporter gene) of a Hep3B wild-type gene was ligated with an enhancer and potentiator fragment (144 bp), to thereby produce a modified Hep3B wild-type gene as Pwt. Hep3B cells were cultured in an amount of 1×10^6 cells/petri dish (30 mm) by use of 4-mL DMEM/10% FCS, and the above modified wild-type (2 μg) and β-galactosidase gene (1 μg) (serving as an internal standard) were inserted into each of the cultured cells through the lipofectin method. […] After completion of culture, luciferase activity and β-galactosidase activity of the resultant cell extract were determined. EPO potentiator activity is represented by the following formula."}, "Hep3B cells [2]": {"system": "Hep3B cells", "assay": "EPO produced by Hep3B cells under 1% O2, ELISA of culture supernatant", "description": "as §1"}, "[3]": {"system": "EPO enhancer and potentiator fragment luciferase reporter in Hep3B cells", "assay": "EPO potentiator activity, luciferase reporter (Pwt) in Hep3B cells, hypoxic induction", "settings": "control HI 52.2±10.7", "method": "Hep3B cells, which produce EPO at a low O2 partial pressure, were cultured in an amount of 1.5-3.0×10^6 cells/petri dish (100 mm) by use of Dulbecco's modified eagles' medium (DMEM)/10% fetal calf serum (FCS) (10 ml). […] EPO contained in the resultant culture supernatant was measured through ELISA. Separately, EPO potentiator activity was measured in the following manner. The luciferase-pXP2 (serving as a reporter gene) of a Hep3B wild-type gene was ligated with an enhancer and potentiator fragment (144 bp), to thereby produce a modified Hep3B wild-type gene as Pwt. Hep3B cells were cultured in an amount of 1×10^6 cells/petri dish (30 mm) by use of 4-mL DMEM/10% FCS, and the above modified wild-type (2 μg) and β-galactosidase gene (1 μg) (serving as an internal standard) were inserted into each of the cultured cells through the lipofectin method. […] After completion of culture, luciferase activity and β-galactosidase activity of the resultant cell extract were determined. EPO potentiator activity is represented by the following formula.\nHI (hypoxic induction)=(1% O2 luciferase/β-galactosidase)/(21% O2 luciferase/β-galactosidase)"}},
  "data": [
    {"compound": "COc1cc(C=CCCCN2CCCN(CCCC=Cc3cc(OC)c(OC)c(OC)c3)CC2)cc(OC)c1OC", "note": "[compound 1, N,N′-bis(5-(3,4,5-trimethoxyphenyl)-4-pentenyl)homopiperazine]", "values": [
      {"measurement": "amount of EPO", "setting": "Hep3B cells [1]; 21% O2 (normal O2 partial pressure), 24 h, 10 μM compound 1, control 33.6±8.7", "value": "49.5±2.3", "unit": "mU/protein μg"},
      {"measurement": "amount of EPO", "setting": "Hep3B cells [1]; 21% O2, 24 h, 15 μM compound 1, control 33.6±8.7", "value": "56.4±2.2", "unit": "mU/protein μg"},
      {"measurement": "amount of EPO", "setting": "Hep3B cells [1]; 21% O2, 24 h, 30 μM compound 1, control 33.6±8.7", "value": "116.8±5.2", "unit": "mU/protein μg"},
      {"measurement": "amount of EPO", "setting": "Hep3B cells [2]; 1% O2 (low O2 partial pressure), 24 h, 10 μM compound 1, control 39.5±9.1", "value": "71.0±6.0", "unit": "mU/protein μg"},
      {"measurement": "amount of EPO", "setting": "Hep3B cells [2]; 1% O2, 24 h, 15 μM compound 1, control 39.5±9.1", "value": "76.0±13.5", "unit": "mU/protein μg"},
      {"measurement": "amount of EPO", "setting": "Hep3B cells [2]; 1% O2, 24 h, 30 μM compound 1, control 39.5±9.1", "value": "91.5±17.8", "unit": "mU/protein μg"},
      {"measurement": "HI (hypoxic induction), EPO potentiator activity", "setting": "[3]; 10 μM compound 1 alone", "value": "91.0±36.6"},
      {"measurement": "HI (hypoxic induction), EPO potentiator activity", "setting": "[3]; 10 μM compound 1 in the presence of 10^−3M L-NMMA", "value": "63.4±7.5"}
    ]}
  ]
}
